The results in this text go back to patent US9888690B2, “Insecticidal compounds from Nothapodites foetida and process for the extraction thereof” (priority 2011, dated 2018).

≈ marks a conversion by molar mass, not a printed value. Where two headings read alike, the source gives them in different places.

Assay [1] deals with Mycobacterium tuberculosis Ra. Description: XTT assay, anti-mycobacterial activity. Type of assay: cell-based, M. tuberculosis H37Ra (ATCC 25177). As to conditions: for inhibition at 100 µg/mL: inhibition at 100 μg/ml, 8th day of incubation. Here is the method: M. tuberculosis H37Ra (ATCC 25177) cells, obtained from MTCC (Chandigarh, India), were grown to logarithmic phase (O.D, 0.595˜1.0) in a defined medium (M. pheli medium) under aerobic conditions in a shaker incubator (Thermo Electron Corporation Model 481) maintained at 150 rpm and 37° C. After growth, the culture was sonicated for 2 min using water bath sonicator. Sonicated cells were used for inoculation in micro plate wells. […] of culture containing ˜1×10^5 cells/ml was added to each well of 96 well plates. Camptothecanoid 1, 2 and 3 and Phthalate, […], dissolved in DMSO (Sigma), were added to the wells to attain a final concentration of 100 µg/ml respectively for screening. Then, the plate was incubated in a CO2 incubator at 37° C. The plate was taken out on the 8th day of incubation to measure the viable cell counts. The optical density of the culture was measured before addition of XTT (Sigma) at 470 nm which was served as a blank for the MIC calculations. XTT, 200 µM, was added and incubated for 20 min at 37° C. after shaking for 1 min. After 20 min of incubation, 60 µM Menadione (Sigma) was added and incubated at 37° C. for 40 min after mixing of 1 min. Finally, the optical density of the suspension was measured at 470 nm by using microplate reader. Isoniazid (Sigma) was used as a positive control.

The subject of assay [2] is THP 1 cell line. Kind of assay: MTT cell proliferation assay. The assay is classed as cell-based. As to conditions: Homo sapiens, read-out: MTT assay against THP 1 cell line % Inhibition. The protocol: Camptothecanoid 1, 2 and 3 and Phthalate were tested for their inhibitory effect on THP-1 cells. About 10,000 cells were taken per well in 96-well tissue culture plates and treated with test samples at 100 μg/ml for 72 h. Vehicle control (DMSO, 1%) and positive control (Paclitaxel, 100 μg/ml) was run simultaneously. Cell proliferation was assessed with 10 μl from 5 mg/ml stock solution of tetrazolium salt (MTT) dissolved in cell culture medium and subsequently incubated for additional 1 h at 37° C., 5% of CO2 and 95% humidity in incubator. The violet coloured formazan crystals formed were solubilized in 200 μl of isopropanol and incubated for another 4 h. The optical density was read on a micro plate reader (Spectramax plus384 plate reader, Molecular Devices Inc) at 490 nm filter against a blank prepared from cell-free wells. Absorbance given by cells treated with the carrier DMSO alone was taken as 100% cell growth (Table 2).

The test system of assay [3] is Sitophilus oryzae and Rhizopertha dominica. Description: whole plant or invertebrate. The assay is classed as in vivo. The protocol:
The bioefficacy of the extracts were screened against S. oryzae and R. dominica on wheat at 1000 ppm. Required quantity of the extract dissolved in 6 ml of the solvent was pipetted over 60 gm wheat, taken in a 500 ml beaker. The grain was stirred with a glass rod to obtain uniform application. The control grain received the solvent alone. The treated grain was spread on petridish and kept overnight (12 hrs) for the solvent to evaporate. The 60 gm grain was divided into three lots of 20 gm each, taken in test tubes 25 mm diameter and 95 mm long.
Fifteen unsexed adults, 1-2 weeks old, of the rice weevil, Sitophilus oryzae and the lesser grain borer, Rhizopertha dominica were seeded into the tubes separately. The tubes were covered with muslin held by rubber bands. The mortality of the test insects was recorded after 1, 3, 7, 14 and 21 days. After the last count, the insects were discarded and the grain incubated to obtain the F1 progeny. The number of emerging progeny was recorded every second day till the emergence was complete. The progeny/adult day was calculated by Kazmaier et. al method. The progeny/adult day corrects for the reduction in the number of progeny due to adult mortality. A significant reduction in the progeny/adult day compared to the control indicates Insect Growth Regulating (IGR) activity, which is presented in Tables 1, 2 and 3.
Camptothecin obtained from Sigma Aldrich was assayed on wheat against S. oryzae and R. dominica as in example 1.

Setting [4] is: THP-1, inhibition at 100 μg/ml, 72 h.

Take `CC[C@H](OC1OC(CO)C(O)C(O)C1O)c1cc2n(c(=O)c1C)Cc1cc3ccccc3nc1-2` (stereo partly shown) [Camptothecanoid 1]: the inhibition at 100 µg/mL stood at 48.3% in assay [1] and 70.9% in assay [2] (THP-1, 72 h).
With `NNC(=O)c1ccncc1` [Isoniazid], the concentration for an effect of 90% (IC90) in assay [1] (read-out: IC90, XTT assay Mycobacterium tuberculosis Ra) amounted to 0.05 µg/mL (≈ 0.365 µM).
Consider `CC[C@](O)(C(=O)O)c1cc2n(c(=O)c1COC(C)=O)Cc1cc3ccccc3nc1-2` [Camptothecanoid 2], for which the inhibition at 100 µg/mL in assay [1] was determined as 88.4%; in assay [2] (THP-1, 72 h), 87.5%.
With `CC[C@@]1(O)C(=O)OCc2c1cc1n(c2=O)Cc2cc3ccccc3nc2-1` [Camptothecin], in assay [3] (6.25 ppm on wheat), the “No. of F1 progeny” value is reported as 00. Besides, in assay [3] (12.50 ppm on wheat), the “No. of F1 progeny” value was found to be 00 and the “adult mortality (in words)” value was “no adult mortality”. For the same compound, in assay [3] (25 ppm on wheat), the “No. days for 100% kill” value stood at 21 days and the “No. of F1 progeny” value is 00. For the same compound, in assay [3] (50 ppm on wheat), the “No. days for 100% kill” value was determined as 14 days and the “No. of F1 progeny” value was 00. Besides, in assay [3] (75 ppm on wheat), the “No. days for 100% kill” value was found to be 7 days and the “No. of F1 progeny” value stood at 00. For the same compound, in assay [3] (100 ppm on wheat), the “No. days for 100% kill” value was 3 days and the “No. of F1 progeny” value is recorded as 00. In assay [3] (Sitophilus oryzae), this compound displayed a mortality at 6.25 ppm of 0%, a mortality at 12.5 ppm of 0%, a mortality at 25 ppm of 100% and a mortality at 50 ppm of 100%. Moreover, in assay [3] (Sitophilus oryzae), the mortality at 75 ppm turned out to be 100% and the mortality at 100 ppm came to 100%. In addition, the inhibition at 12.5 ppm in assay [3] (Sitophilus oryzae, read-out: inhibition of F1 progeny) was determined as 100%.
Take `CC(=O)O[C@H]1C(=O)[C@@]2(C)[C@H]([C@H](OC(=O)c3ccccc3)[C@]3(O)C[C@H](OC(=O)[C@H](O)[C@@H](NC(=O)c4ccccc4)c4ccccc4)C(C)=C1C3(C)C)[C@]1(OC(C)=O)CO[C@@H]1C[C@@H]2O` [Paclitaxel]: the inhibition at 100 µg/mL in assay [2] (setting [4]) came to 61%.
Consider `CC[C@](O)(C(=O)O)c1cc2n(c(=O)c1COC(C)=O)Cc1cc3c(OC)cccc3nc1-2` [Camptothecanoid 3], for which the inhibition at 100 µg/mL was 59% in assay [1] and 90.2% in assay [2] (THP-1, 72 h).
As to `CCCCCCCC(CC)COC(=O)c1ccccc1C(=O)OCC(CC)CCCCCCC` (stereo not shown) [Phthalate], the inhibition at 100 µg/mL in assay [1] worked out at 45.6%; in assay [2] (setting [4]) it was 20.1%.
